This passage reports IC50 results from patent US20240092784A1, “CONDENSED HETEROCYCLIC COMPOUND” (NISSAN CHEMICAL CORPORATION, priority 2020, published 2024).

Counter-ions that a name gives are not always drawn.

human SPR, sequence (P35270 whole entry): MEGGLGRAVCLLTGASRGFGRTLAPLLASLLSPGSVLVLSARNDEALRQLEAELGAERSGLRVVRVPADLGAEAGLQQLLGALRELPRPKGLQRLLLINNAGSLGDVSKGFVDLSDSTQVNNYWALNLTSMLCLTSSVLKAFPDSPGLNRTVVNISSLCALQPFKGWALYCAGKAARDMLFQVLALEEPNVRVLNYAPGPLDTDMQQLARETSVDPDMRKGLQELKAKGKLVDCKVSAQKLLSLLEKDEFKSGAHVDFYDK

The target in one test is human SPR (Homo sapiens (Human), UniProt P35270). Put plainly: Evaluation Example 2: Measurement of human SPR inhibitory activity (seven concentrations, sepiapterin absorbance at 420 nm). Particulars: Evaluation Example 2, seven concentrations 0.14 nM to 100 nM, 240 minutes at room temperature, read-out: IC50. Type of test: biochemical. In short, it runs like this:
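His-tagged full-length human SPR (1-261) was expressed in E. coli and the tag removed. Enzyme at 150 ng/mL in 100 mM Tris-HCl pH 7.5/0.01% BSA was mixed with compound (0.14–100 nM, seven points), 120 μM sepiapterin and 160 μM NADPH, both as added-solution concentrations. After 240 min at room temperature, remaining sepiapterin was read at 420 nm to give percent inhibition.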
On to `CC(C)(C)Cn1c(=O)c(C(=O)NC2CC2)c(O)n2nc(Nc3cnc(C(=O)N4CCC(F)(F)CC4)cn3)cc12` [Synthesis Example 355, N-Cyclopropyl-2-((5-(4,4-difluoropiperidine-1-carbonyl)pyrazin-2-yl)amino)-7-hydroxy-4-neopentyl-5-oxo-4,5-dihydropyrazolo[1,5-a]pyrimidine-6-carboxamide], for which the IC50 was found to be 1100 pM.
Still for that read-out and setting: the value for `CC(C)Cn1c(=O)c(C(=O)NC2CC2)c(O)n2ncc(C(=O)NCc3ccc(C(F)(F)F)nc3)c12` [Synthesis Example 226, N6-Cyclopropyl-7-hydroxy-4-isobutyl-5-oxo-N3-((6-(trifluoromethyl)pyridin-3-yl)methyl)-4,5-dihydropyrazolo[1,5-a]pyrimidine-3,6-dicarboxamide] was 1070 pM; that for `CC(C)(C)Cn1c(=O)c(C(=O)NC2CC2)c(O)n2nc(Nc3cncc(C(F)(F)F)n3)cc12` [Synthesis Example 331, N-Cyclopropyl-7-hydroxy-4-neopentyl-5-oxo-2-((6-(trifluoromethyl)pyrazin-2-yl)amino)-4,5-dihydropyrazolo[1,5-a]pyrimidine-6-carboxamide] was 1710 pM; that for `Cc1nn2c(O)c(C(=O)NC3CC3)c(=O)n(CC(C)C)c2c1/C=C/C(=O)N1C[C@@H](C)OC[C@@H]1C` [Synthesis Example 647, N-Cyclopropyl-3-((E)-3-((2R,5S)-2,5-dimethylmorpholino)-3-oxoprop-1-en-1-yl)-7-hydroxy-4-isobutyl-2-methyl-5-oxo-4,5-dihydropyrazolo[1,5-a]pyrimidine-6-carboxamide] was 810 pM.
Still for that read-out and setting: the value for `CC1(Cn2c(=O)c(C(=O)NC3CC3)c(O)n3ncc(/C=C/C(=O)N4CC5CCC(C4)O5)c23)CC1` [Synthesis Example 368, (E)-3-(3-(8-Oxa-3-azabicyclo[3.2.1]octan-3-yl)-3-oxoprop-1-en-1-yl)-N-cyclopropyl-7-hydroxy-4-((1-methylcyclopropyl)methyl)-5-oxo-4,5-dihydropyrazolo[1,5-a]pyrimidine-6-carboxamide] was 610 pM; that for `CC(C)Cn1c(=O)c(C(=O)NC2CC2)c(O)n2ncc(/C=C/C(=O)N3C4CCCC3COC4)c12` [compound 542, (E)-3-(3-(3-Oxa-9-azabicyclo[3.3.1]nonan-9-yl)-3-oxoprop-1-en-1-yl)-N-cyclopropyl-7-hydroxy-4-isobutyl-5-oxo-4,5-dihydropyrazolo[1,5-a]pyrimidine-6-carboxamide] was 780 pM.
Consider `COC[C@H]1CCCN1C(=O)/C=C/c1cnn2c(O)c(C(=O)NC3CC3)c(=O)n(CC(C)C)c12` [compound 548, (R,E)-N-Cyclopropyl-7-hydroxy-4-isobutyl-3-(3-(2-(methoxymethyl)pyrrolidin-1-yl)-3-oxoprop-1-en-1-yl)-5-oxo-4,5-dihydropyrazolo[1,5-a]pyrimidine-6-carboxamide], for which the IC50 is 790 pM.
Still for that read-out and setting: the value for `CC(C)(C)Cn1c(=O)c(C(=O)NC2CC2)c(O)n2nc3c(c12)CN(C1CC(F)(F)C1)C(=O)N3` [Synthesis Example 410, N-Cyclopropyl-3-(3,3-difluorocyclobutyl)-8-hydroxy-5-neopentyl-2,6-dioxo-1,2,3,4,5,6-hexahydropyrazolo[1,5-a:3,4-d′]dipyrimidine-7-carboxamide] was 1500 pM; that for `Cc1nn2c(O)c(C(=O)NC3CC3)c(=O)n(CC(C)C)c2c1/C=C/C(=O)N1CCC[C@@H]1C(C)C` [Synthesis Example 629, (R,E)-N-Cyclopropyl-7-hydroxy-4-isobutyl-3-(3-(2-isopropylpyrrolidin-1-yl)-3-oxoprop-1-en-1-yl)-2-methyl-5-oxo-4,5-dihydropyrazolo[1,5-a]pyrimidine-6-carboxamide] was 1140 pM.
Same read-out and setting: the figure for `CC(C)Cn1c(=O)c(C(=O)NC2CC2)c(O)n2ncc(/C=C/C(=O)N3CCOCC34CCC4)c12` [compound 547, (E)-N-Cyclopropyl-7-hydroxy-4-isobutyl-5-oxo-3-(3-oxo-3-(8-oxa-5-azaspiro[3,5]nonan-5-yl)prop-1-en-1-yl)-4,5-dihydropyrazolo[1,5-a]pyrimidine-6-carboxamide] is 740 pM.
The same measure, in the same setting: the figure for `CC(C)Cn1c(=O)c(C(=O)NC2CC2)c(O)n2ncc(/C=C/C(=O)N(C)CC(F)(F)F)c12` [compound 509, (E)-N-Cyclopropyl-7-hydroxy-4-isobutyl-3-(3-(methyl(2,2,2-trifluoroethyl)amino)-3-oxoprop-1-en-1-yl)-5-oxo-4,5-dihydropyrazolo[1,5-a]pyrimidine-6-carboxamide] is 920 pM; for `CC(C)(C)Cn1c(=O)c(C(=O)NC2CC2)c(O)n2nc(N)c(/C=C/C3CC3)c12` [Synthesis Example 440, (E)-2-Amino-N-cyclopropyl-3-(2-cyclopropylvinyl)-7-hydroxy-4-neopentyl-5-oxo-4,5-dihydropyrazolo[1,5-a]pyrimidine-6-carboxamide hydrochloride] it is 1200 pM.
With `Cc1nn2c(O)c(C(=O)NC3CC3)c(=O)n(CC(C)(C)C)c2c1/C=C/C(=O)N1[C@@H](C)COC[C@@H]1C` [Synthesis Example 624, N-Cyclopropyl-3-((E)-3-((3S,5S)-3,5-dimethylmorpholino)-3-oxoprop-1-en-1-yl)-7-hydroxy-2-methyl-4-neopentyl-5-oxo-4,5-dihydropyrazolo[1,5-a]pyrimidine-6-carboxamide], the IC50 worked out at 980 pM.
Same read-out and setting: the figure for `CC(C)(C)Cn1c(=O)c(C(=O)NC2CC2)c(O)n2nc(N3CC[C@H](N)C3)cc12` [Synthesis Example 342, (S)-2-(3-Aminopyrrolidin-1-yl)-N-cyclopropyl-7-hydroxy-4-neopentyl-5-oxo-4,5-dihydropyrazolo[1,5-a]pyrimidine-6-carboxamide] is 2310 pM.
Take `CC(C)Cn1c(=O)c(C(=O)NC2CC2)c(O)n2ncc(/C=C/C(=O)N3CCOC[C@@H]3c3ccccc3)c12` [compound 606, (S,E)-N-Cyclopropyl-7-hydroxy-4-isobutyl-5-oxo-3-(3-oxo-3-(3-phenylmorpholino)prop-1-en-1-yl)-4,5-dihydropyrazolo[1,5-a]pyrimidine-6-carboxamide]: the IC50 was 1320 pM.
The same measure, in the same setting: the figure for `CC(C)(C)Cn1c(=O)c(C(=O)NC2CC2)c(O)n2nc(N)c(Cl)c12` [compound 447, 2-Amino-3-chloro-N-cyclopropyl-7-hydroxy-4-neopentyl-5-oxo-4,5-dihydropyrazolo[1,5-a]pyrimidine-6-carboxamide hydrochloride] is 2160 pM.
The same measure, in the same setting: the figure for `CO[C@@H]1CCN(C(=O)/C=C/c2c(C)nn3c(O)c(C(=O)NC4CC4)c(=O)n(CC(C)C)c23)C1` [compound 578, (R,E)-N-Cyclopropyl-7-hydroxy-4-isobutyl-3-(3-(3-methoxypyrrolidin-1-yl)-3-oxoprop-1-en-1-yl)-2-methyl-5-oxo-4,5-dihydropyrazolo[1,5-a]pyrimidine-6-carboxamide] is 900 pM.
Same read-out and setting: the value for `O=C(NC1CC1)c1c(O)n2ncc(/C=C/C(=O)N3CCOCC3)c2n(CC2CCC2)c1=O` [Synthesis Example 381, (E)-4-(Cyclobutylmethyl)-N-cyclopropyl-7-hydroxy-3-(3-morpholino-3-oxoprop-1-en-1-yl)-5-oxo-4,5-dihydropyrazolo[1,5-a]pyrimidine-6-carboxamide] was 710 pM; that for `CC(C)Cn1c(=O)c(C(=O)NC2CC2)c(O)n2ncc(/C=C/C(=O)N3[C@H](C)COC[C@H]3C)c12` [compound 556, N-Cyclopropyl-3-((E)-3-((3R,5R)-3,5-dimethylmorpholino)-3-oxoprop-1-en-1-yl)-7-hydroxy-4-isobutyl-5-oxo-4,5-dihydropyrazolo[1,5-a]pyrimidine-6-carboxamide] was 620 pM.
Consider `CC(C)Cn1c(=O)c(C(=O)NC2CC2)c(O)n2ncc(/C=C/C(=O)N3CCO[C@H](C(F)(F)F)C3)c12` [compound 530, (S,E)-N-Cyclopropyl-7-hydroxy-4-isobutyl-5-oxo-3-(3-oxo-3-(2-(trifluoromethyl)morpholino)prop-1-en-1-yl)-4,5-dihydropyrazolo[1,5-a]pyrimidine-6-carboxamide], for which the IC50 is 1140 pM.
On the same count and under the same terms, the figure for `COC[C@@H]1COCCN1C(=O)/C=C/c1cnn2c(O)c(C(=O)NC3CC3)c(=O)n(CC3(C)CC3)c12` [Synthesis Example 372, (R,E)-N-Cyclopropyl-7-hydroxy-3-(3-(3-(methoxymethyl)morpholino)-3-oxoprop-1-en-1-yl)-4-((1-methylcyclopropyl)methyl)-5-oxo-4,5-dihydropyrazolo[1,5-a]pyrimidine-6-carboxamide] is 550 pM.
Still for that read-out and setting: the figure for `CC(C)(C)Cn1c(=O)c(C(=O)NC2CC2)c(O)n2nc(-c3n[nH]c4ccncc34)cc12` [Synthesis Example 307, N-Cyclopropyl-7-hydroxy-4-neopentyl-5-oxo-2-(1H-pyrazolo[4,3-c]pyridin-3-yl 4,5-dihydropyrazolo[1,5-a]pyrimidine-6-carboxamide hydrochloride] is 3030 pM.

Still in this test, the particulars now being: sepiapterin absorbance, Table 41, read-out: concentration at 50% inhibition of human SPR (IC50).
Consider `CC(C)Cn1c(=O)c(C(=O)NC2CC2)c(O)n2ncc(/C=C/C(=O)N(C)Cc3cnccn3)c12` [Synthesis Example 709, (E)-N-Cyclopropyl-7-hydroxy-4-isobutyl-3-(3-(methyl(pyrazin-2-ylmethyl)amino)-3-oxoprop-1-en-1-yl)-5-oxo-4,5-dihydropyrazolo[1,5-a]pyrimidine-6-carboxamide], for which the IC50 was 850 pM.
Take `Cc1nn2c(O)c(C(=O)NC3CC3)c(=O)n(CC(C)C)c2c1/C=C/C(=O)N1C[C@@H](F)[C@H](F)C1` (single isomer, unassigned; isomer b) [Synthesis Example 756, N-Cyclopropyl-3-((E)-3-(trans-3,4-difluoropyrrolidin-1-yl)-3-oxoprop-1-en-1-yl)-7-hydroxy-4-isobutyl-2-methyl-5-oxo-4,5-dihydropyrazolo[1,5-a]pyrimidine-6-carboxamide (Isomer B)]: the IC50 is 710 pM.
